# Molecular target: T1, MMP-2 (Homo sapiens, UniProt P08253)
# T1 construct: purchased Calbiochem-Novabiochem International, Inc
# T1 sequence (P08253 110-660): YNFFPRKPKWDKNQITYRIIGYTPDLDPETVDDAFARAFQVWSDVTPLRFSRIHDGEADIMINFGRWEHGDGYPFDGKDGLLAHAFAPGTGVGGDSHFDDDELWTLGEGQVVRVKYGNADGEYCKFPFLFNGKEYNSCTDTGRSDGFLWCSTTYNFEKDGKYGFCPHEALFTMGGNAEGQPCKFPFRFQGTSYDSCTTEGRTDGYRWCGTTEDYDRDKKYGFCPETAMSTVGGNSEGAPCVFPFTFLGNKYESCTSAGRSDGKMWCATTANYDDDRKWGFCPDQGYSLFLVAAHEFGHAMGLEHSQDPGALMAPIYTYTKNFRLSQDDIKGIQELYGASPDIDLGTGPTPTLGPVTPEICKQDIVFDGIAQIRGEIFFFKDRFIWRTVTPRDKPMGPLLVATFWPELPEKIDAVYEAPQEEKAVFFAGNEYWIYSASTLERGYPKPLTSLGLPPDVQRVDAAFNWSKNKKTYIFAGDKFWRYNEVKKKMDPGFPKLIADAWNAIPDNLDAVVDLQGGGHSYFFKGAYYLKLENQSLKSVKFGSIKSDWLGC
# Experiment: Assay for inhibitory activities on MMP-2 (fluorogenic coumarin-labelled peptide substrate)
# Assay type: biochemical
# Details: MMP-2 purchased from Calbiochem-Novabiochem; substrate MOCAc-Pro-Leu-Gly-Leu-A2Pr(DNP)-Ala-Arg-NH2
# Method: MMP-2 was purchased from Calbiochem-Novabiochem International, Inc.
# The enzymatic activity on MMP-2 was analyzed by the method described in “C. Graham Knight, Frances Willenbrock and Gillian Murphy: A novel coumarin-labelled peptide for sensitive continuous assays of the matrix metalloproteinases: FEBS LETT., 296, (1992), 263-266”. The substrate: MOCAc-Pro-Leu-Gly-Leu-A2Pr(DNP)-Ala-Arg-NH2 was purchased from Peptide Institute, Inc., Osaka, Japan.
# The measurement of the inhibitory activities (IC50) was carried out by the following four methods;
# A) Reaction with substrate, enzyme (MMPs) and inhibitor
# B) Reaction with substrate and inhibitor, without enzyme
# C) Reaction with substrate and enzyme (MMPs), without inhibitor
# D) Reaction with substrate only
# IC50 values were calculated by using the following formula and each fluorescence values of above four methods (A to D).
# IC50 means the concentration required to inhibit 50% of the enzyme activity.
row,Compound,IC50
1,Cc1ccc(-c2nc(-c3ccc(S(=O)(=O)N[C@@H](C(=O)O)C(C)C)cc3)no2)s1 [Compound A-24],2.88 nM
2,Cc1ccc(-c2nc(-c3ccc(S(=O)(=O)N[C@@H](C)C(=O)O)cc3)no2)cc1 [Compound A-46],458 nM
3,CCc1ccc(-c2nc(-c3ccc(S(=O)(=O)N[C@@H](C(=O)O)C(C)C)cc3)no2)cc1 [Compound A-3],1.24 nM
4,O=C(O)[C@@H](Cc1c[nH]c2ccccc12)NS(=O)(=O)c1ccc(-c2noc(-c3ccc(F)cc3)n2)s1 [Compound B-12],29 nM
5,Cc1ccc(-c2nc(-c3ccc(S(=O)(=O)N[C@H](Cc4ccccc4)C(=O)O)s3)no2)s1 [Compound B-6],26.5 nM
6,Cc1ccc(-c2nc(-c3ccc(S(=O)(=O)N[C@H](Cc4ccccc4)C(=O)O)cc3)no2)cc1 [Compound A-5],6.68 nM
7,CCc1ccc(-c2nc(-c3ccc(S(=O)(=O)N[C@H](C)C(=O)O)cc3)no2)cc1 [Compound A-47],4.63 nM
8,CCc1ccc(-c2nc(-c3ccc(S(=O)(=O)N[C@H](Cc4c[nH]c5ccccc45)C(=O)O)s3)no2)cc1 [Compound B-13],4.08 nM
9,Cc1ccc(-c2nc(-c3ccc(S(=O)(=O)NCC(=O)O)cc3)no2)s1 [Compound A-63],33.9 nM
10,O=C(O)[C@@H](Cc1ccccc1)NS(=O)(=O)c1ccc(-c2noc(-c3ccccc3)n2)cc1 [Compound A-29],27.9 nM
11,CCc1ccc(-c2nc(-c3ccc(S(=O)(=O)N[C@@H](C(=O)O)C(C)C)s3)no2)cc1 [Compound B-2],5.39 nM
12,O=C(O)[C@H](Cc1ccccc1)NS(=O)(=O)c1ccc(-c2noc(-c3ccc(Cl)c(Cl)c3)n2)cc1 [Compound A-39],80.7 nM
13,O=C(O)[C@@H](Cc1ccccc1)NS(=O)(=O)c1ccc(-c2noc(-c3ccc(F)cc3)n2)cc1 [Compound A-7],26.5 nM
14,CC(C)C[C@@H](NS(=O)(=O)c1ccc(-c2noc(-c3ccc(Cl)cc3)n2)cc1)C(=O)O [Compound A-66],37.6 nM
15,C[C@@H](NS(=O)(=O)c1ccc(-c2noc(-c3ccc(Cl)s3)n2)cc1)C(=O)O [Compound A-54],12.4 nM
16,CC(C)[C@@H](NS(=O)(=O)c1ccc(-c2noc(-c3ccccc3)n2)cc1)C(=O)O [Compound A-16],26.4 nM
17,C[C@@H](NS(=O)(=O)c1ccc(-c2noc(-c3ccc(F)cc3)n2)s1)C(=O)O [Compound B-7],39.7 nM
18,CCCCc1ccc(-c2nc(-c3ccc(S(=O)(=O)N[C@H](Cc4ccccc4)C(=O)O)cc3)no2)cc1 [Compound A-9],6.04 nM
19,Cc1ccc(-c2nc(-c3ccc(S(=O)(=O)N[C@H](C)C(=O)O)cc3)no2)s1 [Compound A-53],8.74 nM
20,CCc1ccc(-c2nc(-c3ccc(S(=O)(=O)N[C@H](Cc4c[nH]c5ccccc45)C(=O)O)cc3)no2)cc1 [Compound A-64],1.39 nM
21,O=C(O)[C@@H](Cc1ccccc1)NS(=O)(=O)c1ccc(-c2noc(-c3cccs3)n2)cc1 [Compound A-40],31 nM
22,O=C(O)[C@@H](Cc1ccccc1)NS(=O)(=O)c1ccc(-c2noc(-c3ccc(C4CCCCC4)cc3)n2)cc1 [Compound A-35],14.4 nM
23,Cc1ccc(-c2nc(-c3ccc(S(=O)(=O)N[C@H](Cc4ccccc4)C(=O)O)cc3)no2)s1 [Compound A-41],5.59 nM
24,Cc1ccc(-c2nc(-c3ccc(S(=O)(=O)N[C@H](C)C(=O)O)s3)no2)s1 [Compound B-10],6.29 nM
25,C[C@@H](NS(=O)(=O)c1ccc(-c2noc(-c3ccc([N+](=O)[O-])cc3)n2)cc1)C(=O)O [Compound A-50],12.6 nM
26,C[C@@H](NS(=O)(=O)c1ccc(-c2noc(-c3cccs3)n2)s1)C(=O)O [Compound B-9],28 nM
27,CN(C)c1ccc(-c2nc(-c3ccc(S(=O)(=O)N[C@H](Cc4ccccc4)C(=O)O)cc3)no2)cc1 [Compound A-8],11.9 nM

row,Compound,IC50
1,C[C@@H](NS(=O)(=O)c1ccc(-c2noc(-c3ccsc3)n2)cc1)C(=O)O [Compound A-55],50.3 nM
2,Cc1ccc(-c2nc(-c3ccc(S(=O)(=O)N[C@@H](Cc4ccccc4)C(=O)O)cc3)no2)cc1 [Compound A-30],39.8 nM
3,CC(=O)c1ccc(-c2nc(-c3ccc(S(=O)(=O)N[C@H](C)C(=O)O)cc3)no2)cc1 [Compound A-51],3.21 nM
4,CCc1ccc(-c2nc(-c3ccc(S(=O)(=O)NCC(=O)O)s3)no2)cc1 [Compound B-16],12.6 nM
5,C[C@@H](NS(=O)(=O)c1ccc(-c2noc(-c3ccc(Cl)cc3)n2)cc1)C(=O)O [Compound A-11],18.6 nM
6,O=C(O)CNS(=O)(=O)c1ccc(-c2noc(-c3ccc(Cl)cc3)n2)cc1 [Compound A-13],85.2 nM
7,Cc1ccc(-c2nc(-c3ccc(S(=O)(=O)N[C@H](C(=O)O)C(C)C)cc3)no2)s1 [Compound A-25],47.4 nM
8,C[C@@H](NS(=O)(=O)c1ccc(-c2noc(-c3ccco3)n2)cc1)C(=O)O [Compound A-56],70.5 nM
9,O=C(O)[C@H](Cc1ccccc1)NS(=O)(=O)c1ccc(-c2noc(-c3ccc4c(c3)OCO4)n2)cc1 [Compound A-37],20.2 nM
10,CC(C)[C@H](NS(=O)(=O)c1ccc(-c2noc(-c3ccc(Cl)s3)n2)cc1)C(=O)O [Compound A-27],60.3 nM
11,CC(C)[C@@H](NS(=O)(=O)c1ccc(-c2noc(-c3ccc(Cl)s3)n2)cc1)C(=O)O [Compound A-26],6.72 nM
12,CCCc1ccc(-c2nc(-c3ccc(S(=O)(=O)N[C@@H](C)C(=O)O)cc3)no2)cc1 [Compound A-49],126 nM
13,CCCc1ccc(-c2nc(-c3ccc(S(=O)(=O)N[C@H](C)C(=O)O)cc3)no2)cc1 [Compound A-48],1.17 nM
14,Cc1cccc(-c2nc(-c3ccc(S(=O)(=O)N[C@H](Cc4ccccc4)C(=O)O)cc3)no2)c1 [Compound A-36],38 nM
15,N#Cc1ccc(-c2nc(-c3ccc(S(=O)(=O)N[C@H](Cc4ccccc4)C(=O)O)cc3)no2)cc1 [Compound A-34],13.1 nM
16,CC(C)[C@@H](NS(=O)(=O)c1ccc(-c2noc(-c3ccc(Cl)cc3)n2)cc1)C(=O)O [Compound A-2],5.75 nM
17,CC(C)[C@@H](NS(=O)(=O)c1ccc(-c2noc(-c3ccc(F)cc3)n2)s1)C(=O)O [Compound B-1],67.7 nM
18,COc1ccc(-c2nc(-c3ccc(S(=O)(=O)N[C@@H](Cc4ccccc4)C(=O)O)cc3)no2)cc1OC [Compound A-38],506 nM
19,CC(C)[C@@H](NS(=O)(=O)c1ccc(-c2noc(-c3ccc(F)cc3)n2)cc1)C(=O)O [Compound A-17],15.5 nM
20,CCCc1ccc(-c2nc(-c3ccc(S(=O)(=O)NCC(=O)O)cc3)no2)cc1 [Compound A-61],15.7 nM
21,Cc1ccc(-c2nc(-c3ccc(S(=O)(=O)N[C@@H](CC(C)C)C(=O)O)cc3)no2)cc1 [Compound A-67],124 nM
22,Cc1ccc(-c2nc(-c3ccc(S(=O)(=O)NC(C(=O)O)C(C)C)cc3)no2)cc1 (centres unmarked) [Compound A-19],114 nM
23,CC(C)[C@H](NS(=O)(=O)c1ccc(-c2noc(-c3cccs3)n2)cc1)C(=O)O [Compound A-23],339 nM
24,CC(C)[C@@H](NS(=O)(=O)c1ccc(-c2noc(-c3cccs3)n2)cc1)C(=O)O [Compound A-22],40.7 nM
25,O=C(O)[C@@H](Cc1ccccc1)NS(=O)(=O)c1ccc(-c2noc(-c3ccc(F)cc3)n2)s1 [Compound B-3],223 nM
26,CC(C)c1ccc(-c2nc(-c3ccc(S(=O)(=O)NCC(=O)O)cc3)no2)cc1 [Compound A-60],14.3 nM

# Source: patent publication US6495578B1, “Sulfonamide derivatives having oxadiazole rings” (Shionogi & Co., Ltd., priority 1999, dated 2002)
